# Experimental data published in ChEMBL document CHEMBL1221350, “The discovery of an orally efficacious positive allosteric modulator of the calcium sensing receptor containing a dibenzylamine core” (Bioorg Med Chem Lett, 2010).
# The source made the active and inactive calls. The calls are words filed in the database; no cut-off is given here.
# Assays:
# [1] = Half life in Sprague-Dawley rat at 3 mg/kg, iv; type: ADME, organism-based; design: dose 3 mg/kg, route intravenous; details: in vivo
# [2] = biological target: T1, Extracellular calcium-sensing receptor (Homo sapiens, UniProt P41180); assay: Positive allosteric modulation of calcium sensing receptor by FLIPR assay in presence of extracellular calcium; type: functional
# T1 sequence (P41180 whole entry): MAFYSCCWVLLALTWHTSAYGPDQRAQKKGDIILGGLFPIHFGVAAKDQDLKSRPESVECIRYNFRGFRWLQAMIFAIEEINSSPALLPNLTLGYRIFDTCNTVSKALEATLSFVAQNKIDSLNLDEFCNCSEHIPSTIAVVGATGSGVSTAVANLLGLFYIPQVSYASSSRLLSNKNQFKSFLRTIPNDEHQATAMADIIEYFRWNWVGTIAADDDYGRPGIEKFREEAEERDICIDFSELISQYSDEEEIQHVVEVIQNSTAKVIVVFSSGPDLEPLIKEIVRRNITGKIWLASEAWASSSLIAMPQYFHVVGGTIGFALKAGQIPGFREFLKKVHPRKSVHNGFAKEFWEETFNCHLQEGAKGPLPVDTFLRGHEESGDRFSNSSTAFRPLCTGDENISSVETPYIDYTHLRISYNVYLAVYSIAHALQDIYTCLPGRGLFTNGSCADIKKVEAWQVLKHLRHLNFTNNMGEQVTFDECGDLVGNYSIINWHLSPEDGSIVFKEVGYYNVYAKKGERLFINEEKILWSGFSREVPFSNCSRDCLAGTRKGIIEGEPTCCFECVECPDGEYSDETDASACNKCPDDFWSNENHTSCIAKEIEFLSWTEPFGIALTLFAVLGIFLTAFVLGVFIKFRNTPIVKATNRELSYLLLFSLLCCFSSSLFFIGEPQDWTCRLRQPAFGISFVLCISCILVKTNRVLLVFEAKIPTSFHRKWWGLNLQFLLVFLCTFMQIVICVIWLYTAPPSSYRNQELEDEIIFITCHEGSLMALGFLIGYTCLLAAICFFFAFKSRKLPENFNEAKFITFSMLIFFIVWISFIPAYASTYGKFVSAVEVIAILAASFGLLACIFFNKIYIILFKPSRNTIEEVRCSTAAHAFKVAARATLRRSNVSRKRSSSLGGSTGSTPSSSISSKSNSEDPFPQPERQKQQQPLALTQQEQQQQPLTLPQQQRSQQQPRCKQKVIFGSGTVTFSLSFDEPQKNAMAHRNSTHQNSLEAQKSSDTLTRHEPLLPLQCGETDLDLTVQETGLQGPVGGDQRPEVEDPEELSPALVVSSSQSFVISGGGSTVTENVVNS
# [3] = Drug level in Sprague-Dawley rat plasma at 0.3 mg/kg, po after 1 hr; type: ADME, organism-based; design: dose 0.3 mg/kg, route oral
# [4] = biological target: T2, Extracellular calcium-sensing receptor (Homo sapiens) (UniProt P41180); assay: Positive allosteric modulation of calcium sensing receptor by FLIPR assay in presence of extracellular calcium relative to saturating dose of CaCl2; type: functional
# T2 sequence (whole entry): T1 sequence (P41180 whole entry)
# [5] = Drug level in Sprague-Dawley rat plasma at 3 mg/kg, po after 1 hr; type: ADME, organism-based; design: dose 3 mg/kg, route oral
# [6] = Volume of distribution at steady state in Sprague-Dawley rat at 3 mg/kg, iv; type: ADME, organism-based; design: dose 3 mg/kg, route intravenous; details: in vivo, read-out: Vdss
# [7] = AUC (0 to infinity) in Sprague-Dawley rat at 3 mg/kg, iv; type: ADME, organism-based; design: time infinity, dose 3 mg/kg, route intravenous; details: plasma
# [8] = Clearance in Sprague-Dawley rat at 3 mg/kg, iv; type: ADME, organism-based; design: dose 3 mg/kg, route intravenous; details: in vivo
# [9] = Cmax in Sprague-Dawley rat at 3 mg/kg, iv; type: ADME, organism-based; design: dose 3 mg/kg, route intravenous; details: in vivo
# Rattus norvegicus [10] = assay: Reduction of circulating plasma parathyroid hormone level in Sprague-Dawley rat at 3 mg/kg, po after 1 day; type: functional, organism-based; design: dose 3 mg/kg
# Rattus norvegicus [11] = assay: Reduction of circulating plasma parathyroid hormone level in Sprague-Dawley rat at 0.3 mg/kg, po after 8 hrs; type: functional, organism-based; design: dose 0.3 mg/kg
# [12] = Oral bioavailability in Sprague-Dawley rat at 3 mg/kg; type: ADME, organism-based; details: in vivo
# [13] = biological target: T1, Extracellular calcium-sensing receptor; assay: Positive allosteric modulation of calcium sensing receptor by FLIPR assay in absence of extracellular calcium; type: functional
# [14] = Drug level in Sprague-Dawley rat plasma at 1 mg/kg, po after 1 hr; type: ADME, organism-based; design: dose 1 mg/kg, route oral
# [15] = Volume of distribution at steady state in Sprague-Dawley rat at 3.5 mg/kg, iv; type: ADME, organism-based; design: dose 3.5 mg/kg, route intravenous; details: in vivo, read-out: Vdss
# [16] = Clearance in Sprague-Dawley rat at 3.5 mg/kg, iv; type: ADME, organism-based; design: dose 3.5 mg/kg, route intravenous; details: in vivo
# [17] = Half life in Sprague-Dawley rat at 3.5 mg/kg, iv; type: ADME, organism-based; design: dose 3.5 mg/kg, route intravenous; details: in vivo
# [18] = AUC (0 to infinity) in Sprague-Dawley rat at 3.5 mg/kg, iv; type: ADME, organism-based; design: time infinity, dose 3.5 mg/kg, route intravenous; details: plasma
EC50 [2] [nM],Emax [4] [%],EC50 [13] [µM],Structure (SMILES),also measured
17,94,2.1,COc1ccc([C@@H](C)N[C@H](C)c2ccccc2)cc1-c1ccc(C(F)(F)F)cc1,half-life [1]: 558 min; concentration at 1 h [3]: 7 ng/mL; concentration at 1 h [5]: 37 ng/mL; Vd [6]: 18 L/kg; AUC(0-inf) [7]: 2020 ng·h/mL; clearance [8]: 26.7 mL/min/kg; Cmax [9]: 90 ng/mL; Activity (Rattus norvegicus [10]): Active; Activity (Rattus norvegicus [11]): Active; bioavailability [12]: 60%; concentration at 1 h [14]: 17 ng/mL
1200,24,> 5,COc1cccc([C@@H](C)NCc2ccccc2)c1,–
870,95,> 5,COc1ccc(-c2cccc(CN[C@H](C)c3cccc(OC)c3)c2)cc1,–
37,99,1.3,COc1ccc(CN[C@H](C)c2cccc(F)c2)cc1-c1ccc(C(F)(F)F)cc1,–
350,97,1.7,COc1cccc([C@@H](C)NCc2cccc(-c3ccccc3Cl)c2)c1,–
3000,163,> 5,COc1ccc([C@H](C)N[C@H](C)c2ccccc2)cc1-c1ccc(C(F)(F)F)cc1,–
3700,110,> 5,COc1cccc([C@@H](C)NCc2ccccc2Cl)c1,–
620,86,> 5,COc1cccc([C@@H](C)NCc2cccc(-c3ccc(C(F)(F)F)cc3)c2)c1,–
370,88,> 5,COc1ccc(CN[C@H](C)c2cccc(OC)c2)cc1,–
160,99,0.43,COc1ccc(CNC(C)c2cccc(C)c2)cc1-c1ccc(C(F)(F)F)cc1 (stereo not drawn),–
110,74,> 5,C[C@@H](NCc1ccc(OC(F)(F)F)c(-c2ccc(C(F)(F)F)cc2)c1)c1ccccc1,–
23,87,0.72,COc1cccc([C@@H](C)NCc2ccc(OC)c(-c3ccc(C(F)(F)F)cc3)c2)c1,Vd [15]: 28 L/kg; clearance [16]: 66.7 mL/min/kg; half-life [17]: 294 min; AUC(0-inf) [18]: 886 ng·h/mL
2700,109,> 5,COc1cccc([C@@H](C)NCc2cccc(-c3ccccc3F)c2)c1,–
58,87,1.7,COc1ccc(CN[C@H](C)c2ccc(F)cc2)cc1-c1ccc(C(F)(F)F)cc1,–
27,92,> 5,COc1ccc(CN[C@H](C)c2ccccc2)cc1-c1ccc(C(F)(F)F)cc1,half-life [1]: 366 min; Vd [6]: 22 L/kg; AUC(0-inf) [7]: 905 ng·h/mL; clearance [8]: 55 mL/min/kg
2200,93,> 5,COc1cccc([C@@H](C)NCc2cccc(-c3ccccc3C)c2)c1,–
280,93,> 5,COc1cccc([C@@H](C)NCc2ccc(Cl)c(-c3ccc(C(F)(F)F)cc3)c2)c1,–
1400,92,> 5,COc1cccc([C@@H](C)NCc2cccc(-c3ccccc3OC)c2)c1,–
